Experimental findings from patent publication US12503475B2 (Centessa Pharmaceuticals (UK) Limited, priority 2020, dated 2025) are described below.

In this experiment the target is T1, human orexin type 2 receptor (hOX2R) (Homo sapiens, UniProt O43614).
T1 construct: expressed in transfected cells
T1 sequence (O43614 1-444): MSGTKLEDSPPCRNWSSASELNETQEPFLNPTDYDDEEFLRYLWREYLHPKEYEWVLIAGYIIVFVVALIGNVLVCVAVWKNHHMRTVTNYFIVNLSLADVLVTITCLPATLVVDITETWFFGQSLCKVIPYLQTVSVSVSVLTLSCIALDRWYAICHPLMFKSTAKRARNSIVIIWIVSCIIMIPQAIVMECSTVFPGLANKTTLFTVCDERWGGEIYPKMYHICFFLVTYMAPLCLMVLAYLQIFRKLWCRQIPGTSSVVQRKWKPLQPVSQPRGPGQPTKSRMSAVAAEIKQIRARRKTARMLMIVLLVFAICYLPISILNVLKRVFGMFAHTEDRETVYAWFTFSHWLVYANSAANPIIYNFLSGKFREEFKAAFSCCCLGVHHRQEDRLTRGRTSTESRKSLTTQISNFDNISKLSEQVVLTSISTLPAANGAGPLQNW
Briefly: Measurement of orexin type 2 receptor agonist activity (FLIPR calcium fluorescence). Particulars: CHO cells expressing hOX2R, FLIPR calcium fluorescence; for EC50: read-out: hOx2 pEC50 (converted); for Emax: CHO, read-out: hOx2 Emax (%). In kind it is cell-based. How it is done: The biological activity of the compounds of the present disclosure may be determined in cells stably expressing either orexin type 2 or orexin type 1 receptor. […] The agonist activity of a compound of the present disclosure may be determined by fluorescence value.
Stable cell line generation.
Measurement of orexin type 2 receptor agonist activity. […] As used herein, E. indicates the value at 10 μM concentration when orexin A is converted to a full agonist (maximum value of agonist activity. 100%).

The term Emax denotes the maximal effect, on the per cent scale that the assay sets. With `CS(=O)(=O)N[C@@H]1[C@H](Cc2cc(F)cc(-c3ccccc3)c2F)N(C(=O)[C@H](O)C2CC2)CC12CC2` [Compound 352, N-((6S,7S)-5-((R)-2-cyclopropyl-2-hydroxyacetyl)-6-((2,5-difluoro-[1,1′-biphenyl]-3-yl)methyl)-5-azaspiro[2.4]heptan-7-yl)methanesulfonamide], the EC50 was 1 to 10 nM and the Emax was in the range of 90 to 100%.

Regarding `CS(=O)(=O)N[C@@H]1[C@H](Cc2cccc(-c3ccccc3)c2F)N(C(=O)N2CC[C@H]2CF)CC12CC2` [Compound 80, N-((6S,7S)-6-((2-fluoro-[1,1′-biphenyl]-3-yl)methyl)-5-((S)-2-(fluoromethyl)azetidine-1-carbonyl)-5-azaspiro[2.4]heptan-7-yl)methanesulfonamide], the EC50 was 0.0794 to 1 nM and the Emax was in the range of 90 to 100%.

As to `COCCN(C)C(=O)N1CC2(CC2)[C@H](NS(C)(=O)=O)[C@@H]1Cc1cccc(-c2ccccc2)c1F` [Compound 326, (6S,7S)-6-((2-fluoro-[1,1′-biphenyl]-3-yl)methyl)-N-(2-methoxyethyl)-N-methyl-7-(methylsulfonamido)-5-azaspiro[2.4]heptane-5-carboxamide], the EC50 is 1 to 10 nM and the Emax was 90 to 100%.

For `O=C(C1CCC1)N1CC2(CC2)C(NS(=O)(=O)CF)C1Cc1cccc(-c2ccccc2)c1F` (racemic) [Compound 106, N-(5-5(cyclobutanecarbonyl)-6-((2-fluoro-[1,1′-biphenyl]-3-yl)methyl)-5-azaspiro[2.4]heptan-7-yl)-1-fluoromethanesulfonamide], the EC50 was 0.0794 to 1 nM and the Emax lay in the range of 90 to 100%.

Regarding `O=C([C@H]1CCO1)N1CC2(CC2)[C@H](NS(=O)(=O)C(F)F)[C@@H]1Cc1cccc(-c2cc(F)cc(F)c2)c1` [Compound 214, N-((6S,7S)-6-((3′,5′-difluoro-[1,1′-biphenyl]-3-yl)methyl)-5-((R)-oxetane-2-carbonyl)-5-azaspiro[2.4]heptan-7-yl)-1,1-difluoromethanesulfonamide], the EC50 was 1 to 10 nM and the Emax lay in the range of 90 to 100%.

With `CC(C)(O)C(=O)N1CC2(CC2)[C@H](NS(=O)(=O)CF)[C@@H]1Cc1cc(F)cc(-c2cc(F)cc(F)c2)c1F` [Compound 419, 1-fluoro-N-((6S,7S)-5-(2-hydroxy-2-methylpropanoyl)-6-((2,3′,5,5′-tetrafluoro-[1,1′-biphenyl]-3-yl)methyl)-5-azaspiro[2.4]heptan-7-yl)methanesulfonamide], the EC50 is 1 to 10 nM and the Emax was in the range of 90 to 100%.

As to `CS(=O)(=O)N[C@@H]1[C@H](Cc2cccc(-c3ccccc3)c2F)N(C(=O)[C@H](O)C(F)(F)F)CC12CC2` [Compound 56, N-((6S,7S)-6-((2-fluoro-[1,1′-biphenyl]-3-yl)methyl)-5-((S)-3,3,3-trifluoro-2-hydroxypropanoyl)-5-azaspiro[2.4]heptan-7-yl)methanesulfonamide], the EC50 was 1 to 10 nM and the Emax fell in the range of 90 to 100%.

As to `N#C[C@@]1(C(=O)N2CC3(CC3)[C@H](NS(=O)(=O)CF)[C@@H]2Cc2cccc(-c3ccccc3)c2F)CCO1` (single isomer, unassigned) [Compound 225], the EC50 is 1 to 10 nM and the Emax was in the range of 90 to 100%.

As to `CCS(=O)(=O)N[C@@H]1[C@H](Cc2cccc(-c3cccc(F)c3)c2F)N(C(=O)C(C)(C)O)CC12CC2` [Compound 184, N-((6S,7S)-6-((2,3′-difluoro-[1,1′-biphenyl]-3-yl)methyl)-5-(2-hydroxy-2-methylpropanoyl)-5-azaspiro[2.4]heptan-7-yl)ethanesulfonamide], the EC50 is 1 to 10 nM and the Emax lay within 90 to 100%.

`O=C(NCCF)N1CC2(CC2)[C@H](NS(=O)(=O)C(F)F)[C@@H]1Cc1cccc(-c2ccccc2)c1F` [Compound 207, (6S,7S)-7-((difluoromethyl)sulfonamido)-6-((2-fluoro-[1,1′-biphenyl]-3-yl)methyl)-N-(2-fluoroethyl)-5-azaspiro[2.4]heptane-5-carboxamide]: the EC50 was 1 to 10 nM and the Emax was 90 to 100%.

On to `O=C([C@H]1CCO1)N1CC2(CC2)[C@H](NS(=O)(=O)C2CC2)[C@@H]1Cc1cc(F)cc(-c2ccccc2)c1F` [Compound 349, N-((6S,7S)-6-((2,5-difluoro-[1,1′-biphenyl]-3-yl)methyl)-5-((R)-oxetane-2-carbonyl)-5-azaspiro[2.4]heptan-7-yl)cyclopropanesulfonamide], for which the EC50 was 1 to 10 nM and the Emax lay in the range of 90 to 100%.

In the case of `O=C([C@H]1CCO1)N1CC2(CC2)[C@H](NS(=O)(=O)C(F)F)[C@@H]1Cc1cccc(-c2cccc(F)c2)c1` [Compound 213, 1,1-difluoro-N-((6S,7S)-6-((3′-fluoro-[1,1′-biphenyl]-3-yl)methyl)-5-((R)-oxetane-2-carbonyl)-5-azaspiro[2.4]heptan-7-yl)methanesulfonamide], the EC50 is 1 to 10 nM and the Emax fell in the range of 90 to 100%.

In the case of `CS(=O)(=O)N[C@H]1[C@@H](Cc2cccc(-c3ccccc3)c2F)N(C(=O)[C@@H]2CCO2)CC12CC2` [Compound 19, N-((6R,7R)-6-((2-fluoro-[1,1′-biphenyl]-3-yl)methyl)-5-((S)-oxetane-2-carbonyl)-5-azaspiro[2.4]heptan-7-yl)methanesulfonamide], the EC50 was above 1000 nM and the Emax fell in the range of 90 to 100%.

With `CC[C@@](C)(O)C(=O)N1CC2(CC2)[C@H](NS(=O)(=O)CF)[C@@H]1Cc1cccc(-c2cccc(F)c2)c1F` [Compound 379, N-((6S,7S)-6-((2,3′-difluoro-[1,1′-biphenyl]-3-yl)methyl)-5-((R)-2-hydroxy-2-methylbutanoyl)-5-azaspiro[2.4]heptan-7-yl)-1-fluoromethanesulfonamide], the EC50 is 1 to 10 nM and the Emax lay within 90 to 100%.

Turning to `CCS(=O)(=O)N[C@@H]1[C@H](Cc2cccc(-c3ccccc3)c2)N(C(=O)[C@H]2CCO2)CC12CC2` [Compound 41], the EC50 is 1 to 10 nM and the Emax lay within 90 to 100%.

Consider `O=C([C@H]1CCO1)N1CC2(CC2)[C@H](NS(=O)(=O)CF)[C@@H]1Cc1cc(F)cc(-c2cc(F)cc(F)c2)c1F` [Compound 227, 1-fluoro-N-((6S,7S)-5-((R)-oxetane-2-carbonyl)-6-((2,3′,5,5′-tetrafluoro-[1,1′-biphenyl]-3-yl)methyl)-5-azaspiro[2.4]heptan-7-yl)methanesulfonamide], for which the EC50 is 1 to 10 nM and the Emax was in the range of 90 to 100%.

As to `O=C(NCCF)N1CC2(CC2)[C@H](NS(=O)(=O)CF)[C@@H]1Cc1cc(F)cc(-c2ccccc2)c1F` [Compound 371, (6S,7S)-6-((2,5-difluoro-[1,1′-biphenyl]-3-yl)methyl)-N-(2-fluoroethyl)-7-((fluoromethyl)sulfonamido)-5-azaspiro[2.4]heptane-5-carboxamide], the EC50 was 1 to 10 nM and the maximal response (Emax) was 90 to 100%.

On to `CS(=O)(=O)N[C@H]1[C@@H](Cc2cccc(-c3cccc(F)c3)c2F)N(C(=O)N2CCC2)CC12CC2` [Compound 26, N-((6R,7R)-5-(azetidine-1-carbonyl)-6-((2,3′-difluoro-[1,1′-biphenyl]-3-yl)methyl)-5-azaspiro[2.4]heptan-7-yl)methanesulfonamide], for which the EC50 is 10 to 100 nM and the Emax lay within 90 to 100%.

With `CC(C)(O)C(=O)N1CC2(CC2)C(NS(C)(=O)=O)C1Cc1cccc(-c2cc(F)cc(F)c2)c1F` (racemic) [Compound 28, N-(5-(2-hydroxy-2-methylpropanoyl)-6-((2,3′,5′-trifluoro-[1,1′-biphenyl]-3-yl)methyl)-5-azaspiro[2.4]heptan-7-yl)methanesulfonamide], the EC50 was 10 to 100 nM and the Emax lay within 90 to 100%.

In the case of `CCNC(=O)N1CC2(CC2)C(NS(C)(=O)=O)C1Cc1cccc(-c2ccccc2)c1OC` (racemic) [Compound 44, N-ethyl-6-((2-methoxy-[1,1′-biphenyl]-3-yl)methyl)-7-(methylsulfonamido)-5-azaspiro[2.4]heptane-5-carboxamide], the EC50 was 1 to 10 nM and the Emax was in the range of 80 to 90%.

Take `CCS(=O)(=O)N[C@@H]1[C@H](Cc2cccc(-c3ccccc3)c2F)N(C(=O)[C@H]2CCO2)CC12CC2` [Compound 53, N-((6S,7S)-6-((2-fluoro-[1,1′-biphenyl]-3-yl)methyl)-5-((R)-oxetane-2-carbonyl)-5-azaspiro[2.4]heptan-7-yl)ethanesulfonamide]: the EC50 was 1 to 10 nM and the Emax lay in the range of 90 to 100%.

In the case of `CCS(=O)(=O)N[C@@H]1[C@H](Cc2cccc(-c3cc(F)cc(F)c3)c2F)N(C(=O)[C@H]2CCO2)CC12CC2` [Compound 185, N-((6S,7S)-5-((R)-oxetane-2-carbonyl)-6-((2,3′,5′-trifluoro-[, 1′-biphenyl]-3-yl)methyl)-5-azaspiro[2.4]heptan-7-yl)ethanesulfonamide], the EC50 is 0.0794 to 1 nM and the Emax lay in the range of 90 to 100%.

Take `CC(F)(F)CNC(=O)N1CC2(CC2)[C@H](NS(=O)(=O)CF)[C@@H]1Cc1cccc(-c2ccccc2)c1F` [Compound 409]: the EC50 was 1 to 10 nM and the Emax fell in the range of 90 to 100%.
